For series [1] the following is noted: aqueous solution; 0.01 to 1 mM; cited from earlier work.
For series [2] the following is noted: 37° C. in water, 20 MHz; cited from earlier work.
For series [3] the following is noted: cited from earlier work.
Series [4] has as its system tumor. The following applies: in vivo; cited from earlier work.
Series [5] in a line: Stability to demetallation (sulfide, thiosulfate). The format is physicochemical. The text has this: The above K1 and K2 (or K1 K2) values are predicated on the assumption that the cadmium complexes under discussion are stable with regards to demetallation and that the equilibria of equations 1 and 2 (or 3) pertain under the conditions of base binding. The first of these concerns is readily apparent: If demetallation occurs, then obviously one is not studying base binding! […] The second concern is particularly important within the context of quantitative work: If, for instance, the starting complex 3.cndot.NO3 is not rigorously five coordinate, then K1 (and perhaps K2 as well) would represent an axial ligand displacement reaction rather than a pure addition process as implied above. Control experiments indicate that the assumption of initial five coordination is reasonable: Independent titrations of 3A .cndot.NO3 with NH4 NO3 and H2 O indicate that only modest and monotonic changes in the chemical shift of the "meso" signals take place over the course of adding ≥50 equivalents of these potentially adventitious ligands.^40 This means that either "complete" binding occurs at 1:1 stoichiometry (essentially ruled out in the case of H2 O on the basis of analytical data), or that these species are poorly coordinating in CHCl3 so that five coordination pertains about cadmium; the latter interpretation appearing more likely.
(§1) Attempts to demetallate complex 3A .cndot.NO3 were made. In an effort to obtain the free sp^2 bridged ligand 2A, the above complex in chloroform was stirred for several hours in the presence of sodium sulfide and independently with sodium thiosulfate. […] In the case of sodium sulfide, this critical conclusion was further supported by FAB MS: Other than the starting cationic complex 3A, no evidence was obtained for any moderate to high molecular weight volatile products in the mass spectrum. […] The rate of this process, however, is strongly pH dependent, the half-life being, for instance, on the order of several hours in the presence of ca. 0.1N HCl.

The test system of series [6] is Herpes Simplex Virus Type 1 (HSV-1). Kind of series: HSV-1 photoinactivation, viral plaque assay in Vero cells. The following applies: for % Survival Viral Infectivity: light at max absorption, 10 J/cm^2. The format is cell-based. From the text: The photosensitized inactivation of Herpes Simple Virus, Type 1 (HSV-1) was investigated in culture medium using various macrocycles of the present invention.
The macrocycle photosensitizing studies employed enveloped HSV-1 as the model for screening based on its ease of propagation and assessment of infectivity in cell culture. The screening procedure for photoinactivation of HSV-1 was similar to the methods previously described.^3 Essentially, selected macrocycles at different concentrations were added to a cell-free suspension of 10^6 PFU/ml of HSV-1. The viral suspensions were irradiated at the optimal absorption wavelength of the selected dye at different light-energy densities. Controls consisted of (1) nonirradiated virus, (2) virus irradiated in the absence of macrocycle, and (3) virus treated with selected concentrations of macrocycle and maintained in the dark. All samples were then assessed for viral infectivity by determining the number of PFU/ml in Vero cells.
Viral suspensions were serially diluted and subsequently absorbed onto Vero cell monolayers for 11/2 hours at 37^~ C. An overlay medium was added and the cells incubated at 37^~ C. for 3-4 days. The overlay medium was then removed, the monolayers fixed with methanol and tinctured with Giemsa, and individual plaques counted under a dissecting microscope. Uninfected cell cultures also were exposed to the macrocycle complexes to rule out direct cytotoxic effects.

A short description of series [7]: Axial base binding of benzimidazole, 1H NMR spectral titration. Particulars: CDCl3; Scatchard plot; estimated error ≤15%; read-out: K1 (benzimidazole) (converted). The text has this:
For a rigorously five coordinate starting cadmium complex, such as that represented schematically by structure 3A, where neither the counter anion nor adventitious ligands serves to occupy an apical coordination site, base binding can be considered to occur in accord with equations (1) and (2) shown below. Under conditions where K1 […]K2, these processes can be considered to occur sequentially, giving first a monoligated, presumably pentagonal pyramidal six coordinate species (such as 4bA), followed by a coordinatively saturated bisligated pentagonal bipyramidal product akin to 5aA. Where, however, K2 >>K1this stepwise conceptual approach is invalid. Under these conditions, it becomes easier to analyze the base binding in terms of direct formation of the bisligated material as shown in equation (3).
L+B LB K1 =[LB]/[L][B] (1)
LB+B LB2 K2 =[LB2 ]/[LB][B] (2)
L+2B LB2 K1 K2 =[LB2 ]/[L][B]^2 (3)
The ^1 H NMR titration of 3A .cndot.NO3 with BzIm or pyr-D5 was done. Rigorously purified complex 3A .cndot.NO3 was dried at 80° C. under reduced pressure (1 mmHg) for 1 day. Starting samples for titration were then prepared by dissolving this five coordinate complex (3.32 mg, 0.005 mmol) in 0.7 to 0.75 ml of CDCl3 and transferring quantitatively to an NMR tube. To such samples were then added increasing aliquots of either BzIm or pyr-D5 (as solutions of known concentration in CDCl3) and recording the chemical shift of the "meso" protons at 27^Q C. Control experiments were also carried out by adding known quantities of CF3 CO2 H, D2 O, and NH4 NO3 to similar stock solutions of 3.cndot.NO3.
Determination of Binding Constants. […] The chemical shift data obtained for the "meso" signals as a function of added BzIm were thus analyzed as such at both very low and very high conversion: Standard Scatchard (single reciprocal) plots^38 were constructed by plotting (δ-δo)/[BzIm] vs (δ-δo) according to equation 4 (which corresponds to eq. 5.13 of ref. 38), obtaining K as the absolute value of the slope and the term (δ.infin. -δo)K as the intercept.
(δ-δo)/[BzIm]=-K(δ-δo)+(δ.infi
Here δ is the observed chemical shift, δo is the initial chemical shift of the pure five or six coordinate starting complex (3A .cndot.NO3 or 4bA --NO3), δ.infin. the chemical shift calculated for the final mono- or bisligated complexes 4bA .cndot.NO3 or 5aA .cndot.NO3, K the equilibrium constant in question, and [BzIm] the concentration of free, uncomplexed benzimidazole. […] This was done in a straightforward manner according to the expressions given in equations 5 and 6, where [lig]o represents the concentration of the starting five coordinate ligand 3A .cndot.NO3.
(δ-δo)/δ.infin. -δo) at low
[BzIm].congruent.[BzIm]o -[lig]o at high [BzIm]o (6)
Using these corrected values for [BzIm], straight line Scatchard plots were obtained with R[…]0.99 and 0.98 respectively for the low and high [BzIm]o regimes giving values of K1 and K2 of 1.80×10^4 M^-1 and 12.9 M^-1 respectively.

Series [8] in a line: Hydrolysis in aqueous acid. The format is physicochemical. The following applies: aqueous acid.
Source text: as §1

Series [9] deals with peripheral mononucleated vascular cells (PMC). Kind of series: Mitogenic assay ([3H]-Thy uptake after PHA stimulation) of peripheral mononucleated vascular cells in whole human plasma. The following applies: 0.15 μM, 20 joules/cm^2 of 770 nm light, aerobic. It counts as cell-based. On the procedure:
Cell kill was determined by [3H]-Thy uptake after phytohemagglutin (PHA) stimulation.
Cell kill was determined by [^3 H]-Thy uptake after PHA stimulation.
The inactivation of PMC's in the absence and presence of light after exposure to concentrations of complex 3A in whole human plasma ranging from 0.015 to 38 μM is shown in FIG. 29 and FIG. 30. Inactivation was judged by mitogenic assay. Toxicity onset with 3A (see FIG. 4B) and 1c (see FIG. 19) in the absence of light was between 0.15 and 1.5 μM (FIG. 29). […] Moderate increase in either photosensitizer concentration or light dosage is expected to result in essentially complete cellular inactivation.

A short description of series [10]: Optical and photophysical properties of metallotexaphyrins (laser flash photolysis, fluorescence, singlet oxygen luminescence). The following applies: preliminary, photoexcitation at 350 nm. It counts as physicochemical. From the text: Finally, several complexes containing paramagnetic metal ions (e.g. Mn^II, Sm^III, and Eu^III, structures 5c -7c) were investigated.
Comparison of the initial intensity with that obtained using tetrakis (4-hydroxyphenyl)porphyrin (THPP) as photosensitizer^3b under identical conditions allowed calculation of the quantum yields for production of singlet oxygen (^.phi. 1.cndot.2).

SMILES strings stand for the structures.

In the case of `[Gd+3]` [Gd(III)], the “toxicity for direct use in MRI imaging” value in series [1] is listed as “too toxic to be used directly”.
Take `CNC[C@H](O)[C@@H](O)[C@H](O)[C@H](O)CO.CNC[C@H](O)[C@@H](O)[C@H](O)[C@H](O)CO.O=C([O-])CN(CCN(CC(=O)[O-])CC(=O)O)CCN(CC(=O)[O-])CC(=O)O.[Gd+3]` [[Gd(DTpA)(H2 O)]^2-, bis(N-methylglucamine) salt of Gd(III) diethylenetriaminepentaacetate]: the relaxivity in [2] is reported as 3.7 mM-^1 s-^1. The excretion result in series [3] (after administration) was “excreted intact through the kidneys within several days of administration”. Further, the localization result in series [3] (in vivo) is given as “localizes selectively in extracellular regions”.
Turning to `O=S(=O)([O-])c1ccc(-c2c3nc(c(-c4ccc(S(=O)(=O)[O-])cc4)c4ccc([n-]4)c(-c4ccc(S(=O)(=O)[O-])cc4)c4ccc([n-]4)c(-c4ccc(S(=O)(=O)[O-])cc4)c4nc2C=C4)C=C3)cc1.[Mn+3]` [[Mn(III)TPPS]^3 -], the tumor localizing properties result in [4] is given as “good tumor localizing properties”.
With `CCC1=C(C)c2cnc3ccccc3ncc3nc(cc4[n-]c(cc1n2)c(CC)c4CC)C(CC)=C3C.[Cd+2]` [complex 3A], the demetallation by sulfide result in series [5] (aqueous Na2 S / excess sulfide anion) is “no demetallation takes place”. Moreover, the “stability relative to cadmium porphyrins” value in series [5] (neutral conditions / base binding controls) is listed as “more stable than cadmium porphyrins”. Also, the “% Survival Viral Infectivity” value in [6] (0.25 μM) amounted to 100%; in series [6] (2.5 μM), 20%; in series [6] (10 μM), 8%; in series [6] (20 μM), 12%. In [6] (20 μM, viral plaque assay), this compound yielded a viral inactivation of no less than 90%. Also, in [7], the Kd is 55.6 µM. For the same compound, in series [8], the “hydrolysis in aqueous acid” value is “leads to hydrolysis of the macrocyle”. For the same compound, the “inhibition of cellular division” value in [9] was “significant inhibition of the cellular division of PMC's”. In addition, the triplet quantum yield result in [10] is “roughly 80%”. Also, the “triplet quenching in the presence of air” value in [10] is “quenched completely by formation of singlet oxygen”. This compound also showed a triplet lifetime in [10] (absence of oxygen) of 54 μs.
